According to US20110136245A1, “SYNERGISTIC INTERACTIONS OF PHENOLIC COMPOUNDS FOUND IN FOOD” (priority 2009, published 2011):

Legend:
[1] = ORAC assay, phenolic compounds found in strawberries; type: biochemical; settings: strawberry combinations and individual antioxidants; values per gram
Excerpt: FIG. 5 provides the structures. […] Solubility was checked after thawing and dilution. […] All possible combinations of two compounds were mixed on an equal volume basis after being prepared at the concentrations found in Table 4 to ensure relative concentrations were maintained. Mixtures were then further diluted to match the lowest individual compound molarity to fit the Trolox standard curve. […] The same pattern was repeated for combinations of four: the top three synergistic combinations of three were combined with all possible fourth compounds. No statistically significant increases in antioxidant capacity were found for combinations of four. […] Combinations were prepared on the same day of their ORAC assay. ORAC assays were carried out according to Dávalos et al. […] Parameters of the assay were as follows: reader temperature: 37 degrees C., cycle number, 120; cycle time, 60 seconds; shaking mode, 3 seconds of orbital shaking before each cycle. A fluorescence filter with an excitation wavelength of 485/20 nm and an emission wavelength of 520/20 nm was used. Samples were prepared in 96-well plates in a mirror fashion, based on a planned layout. Each mirrored duplicate was averaged and counted as one data point. All samples were measured in quadruplicate (eight wells total) to obtain necessary statistical power. […] The data were analyzed using a Microsoft Excel 2007 (Microsoft, Redmond, Wash., USA) spreadsheet to determine area under the curve and to convert the data to Trolox equivalents based on the Trolox standard curve. […] Likewise, for combinations of three and four, the difference was calculated by subtracting the average of the individual three or four compounds from the combination. […] Difference=(combination abc)−(combination ab+individual c) (7) Difference=(combination abcd)−(combination abc+d) (8)

[2] = published values (Jorgensen & Skibsted 1998; Foley et al. 1999); cited from earlier work
[3] = Solubility on stock solution preparation; settings: weighable concentrations, stock solution in methanol / NaOH
Procedure: Because of the high water content of oranges, no density adjustment was made. Compounds were prepared assuming 100 g was 100 mL in volume. All compounds except hesperidin and luteolin were weighed (10× to 1000× of Table 1 concentration to facilitate weighing) and dissolved in methanol. […] The phenolic stock solutions were stored in 1 mL aliquots at −20.C. Phenolics were brought to RT, vortexed, and diluted in 7:3 (v:v) acetone:water to match the fruit concentrations in Table 1. To fit the Trolox standard curve (see below for assay description), compounds were further diluted in 7:3 (v:v) acetone:water to the following molar concentrations prior to transfer to the 96-well plate: chlorogenic acid, 10.7 μM; hesperidin, 10.2 μM; luteolin, 2.45 μM; myricetin, 0.786 μM; naringenin, 2.61 μM; pcoumaric acid, 1.95 μM; and quercetin, 6.62 μM. Solubility was checked after thawing and dilution. All work involving phenolic compounds, fluorescein, and Trolox was performed in dark conditions to minimize degradation.
It was assumed that 1 g fruit puree was 1 ml in volume for sample preparation, as a density adjustment would not change relative concentrations that would be tested. All compounds except ellagic acid were weighed then dissolved in methanol. […] The phenolic stock solutions were stored in 1 mL aliquots at −20° C. […]

[4] = marketed products and foods listed for comparison; cited from earlier work
[5] = marketed products and foods listed for comparison; cited from earlier work; remark: listed apart in the source

O=c1c(O[C@@H]2O[C@H](CO)[C@@H](O)[C@H](O)[C@H]2O)c(-c2ccc(O)c(O)c2)oc2cc(O)cc(O)c12 [quercetin-3-glucoside]
ORAC Value (µmol Trolox equivalents/g) [1]: 20300 µmol Trolox equivalents/g

O=c1c(O)c(-c2ccc(O)c(O)c2)oc2cc(O)cc(O)c12 [quercetin]
one-electron reduction potential [2]: 0.29 V

O=C(O)/C=C/c1ccc(O)cc1 [p-coumaric acid]
ORAC Value (µmol Trolox equivalents/g) [1]: 20500 µmol Trolox equivalents/g
one-electron reduction potential [2]: 0.59 V

O=c1oc2c(O)c(O)cc3c(=O)oc4c(O)c(O)cc1c4c23 [ellagic acid]
ORAC Value (µmol Trolox equivalents/g) [1]: 7820 µmol Trolox equivalents/g

COc1ccc([C@@H]2CC(=O)c3c(O)cc(O[C@@H]4O[C@H](CO[C@@H]5O[C@@H](C)[C@H](O)[C@@H](O)[C@H]5O)[C@@H](O)[C@H](O)[C@H]4O)cc3O2)cc1O [hesperidin]
solubility [3]: only fully soluble at weighable concentrations in a basic solution

O=C1O[C@H]([C@@H](O)CO)C(O)=C1O [ascorbic acid (vitamin C), ascorbic acid]
ORAC Value (μmol Trolox Equivalents/g of mixture) [4]: 2,000 μmol Trolox Equivalents/g of mixture
ORAC Value [5]: 2,000 mol Trolox Equivalents/g of mixture

O=c1c(O)c(-c2ccc(O)cc2)oc2cc(O)cc(O)c12 [kaempferol]
one-electron reduction potential [2]: 0.39 V
